Source: article PMC12721191, “Oxidative hypoxia drives TGF-β1–induced fibrosis under normoxia” (Redox Biology, 2025)
Entries after “also recorded” stand apart in the source; their conditions may differ.

Experiments:
CYP2C19 = molecular target: T1, CYP2C19 (Homo sapiens, UniProt P33261); experiment: Cytochrome P450 inhibition assay in HLMs; assay type: in vitro ADME; details: pooled human liver microsomes, probe S-mephenytoin (4-hydroxylation), up to 50 μM
T1 construct: tissue Xenotech H0630; host or cells: pooled human liver microsomes
T1 sequence (P33261 whole entry): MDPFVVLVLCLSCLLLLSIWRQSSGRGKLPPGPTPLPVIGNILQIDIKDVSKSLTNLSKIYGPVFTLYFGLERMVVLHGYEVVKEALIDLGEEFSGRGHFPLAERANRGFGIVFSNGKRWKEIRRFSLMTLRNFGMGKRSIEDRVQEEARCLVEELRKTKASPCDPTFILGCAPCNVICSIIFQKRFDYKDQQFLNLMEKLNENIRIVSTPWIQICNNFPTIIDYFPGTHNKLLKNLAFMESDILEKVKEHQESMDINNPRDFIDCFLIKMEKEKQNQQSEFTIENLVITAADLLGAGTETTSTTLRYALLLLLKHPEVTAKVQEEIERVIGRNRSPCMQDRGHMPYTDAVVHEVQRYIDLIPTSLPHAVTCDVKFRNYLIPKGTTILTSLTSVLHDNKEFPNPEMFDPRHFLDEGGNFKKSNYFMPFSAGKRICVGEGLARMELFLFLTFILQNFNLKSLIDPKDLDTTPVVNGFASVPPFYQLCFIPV
Procedure: (§1) All experiments were performed in triplicate. Phenacetin O-deethylase, coumarin hydroxylase, bupropion hydroxylase, amodiaquine N-deethylase, tolbutamide 4-hydroxylase, S-mephenytoin hydroxylase, dextromethorphan O-demethylase, chlorozoxazone 6-hydroxylase, and midazolam 1’-hydroxylase activities were determined as probe activities for CYP1A2, CYP2A6, CYP2B6, CYP2C8, CYP2C9, CYP2C19, CYP2D6, CYP2E1, and CYP3A, respectively, using cocktail incubation and tandem mass spectrometry, as described previously^2,3.

CYP2C8 = molecular target: T2, CYP2C8 (Homo sapiens, UniProt P10632); experiment: Cytochrome P450 inhibition assay in HLMs; assay type: in vitro ADME; details: pooled human liver microsomes, probe amodiaquine (N-deethylation), up to 50 μM
T2 construct: tissue Xenotech H0630; host or cells: pooled human liver microsomes
T2 sequence (P10632 1-490): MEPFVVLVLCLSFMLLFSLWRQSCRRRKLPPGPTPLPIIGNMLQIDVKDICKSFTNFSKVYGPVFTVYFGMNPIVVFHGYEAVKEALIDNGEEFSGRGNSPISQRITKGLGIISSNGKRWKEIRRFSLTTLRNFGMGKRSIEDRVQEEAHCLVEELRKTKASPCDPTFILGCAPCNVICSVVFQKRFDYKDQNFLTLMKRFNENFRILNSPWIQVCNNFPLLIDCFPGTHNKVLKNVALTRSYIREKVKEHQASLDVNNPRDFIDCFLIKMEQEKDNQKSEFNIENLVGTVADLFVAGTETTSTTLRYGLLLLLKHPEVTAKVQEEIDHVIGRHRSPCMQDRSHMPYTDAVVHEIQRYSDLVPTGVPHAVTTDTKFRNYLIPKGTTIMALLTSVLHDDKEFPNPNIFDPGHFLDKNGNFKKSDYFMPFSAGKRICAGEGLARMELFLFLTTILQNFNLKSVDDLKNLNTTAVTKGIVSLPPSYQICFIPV
Procedure: as §1

CYP2C9 = molecular target: T3, CYP2C9 (Homo sapiens, UniProt P11712); experiment: Cytochrome P450 inhibition assay in HLMs; assay type: in vitro ADME; details: Diclofenac 4-hydroxylation, pooled HLMs, up to 50 μM
T3 construct: tissue Xenotech H0630; host or cells: pooled human liver microsomes
T3 sequence (P11712 whole entry): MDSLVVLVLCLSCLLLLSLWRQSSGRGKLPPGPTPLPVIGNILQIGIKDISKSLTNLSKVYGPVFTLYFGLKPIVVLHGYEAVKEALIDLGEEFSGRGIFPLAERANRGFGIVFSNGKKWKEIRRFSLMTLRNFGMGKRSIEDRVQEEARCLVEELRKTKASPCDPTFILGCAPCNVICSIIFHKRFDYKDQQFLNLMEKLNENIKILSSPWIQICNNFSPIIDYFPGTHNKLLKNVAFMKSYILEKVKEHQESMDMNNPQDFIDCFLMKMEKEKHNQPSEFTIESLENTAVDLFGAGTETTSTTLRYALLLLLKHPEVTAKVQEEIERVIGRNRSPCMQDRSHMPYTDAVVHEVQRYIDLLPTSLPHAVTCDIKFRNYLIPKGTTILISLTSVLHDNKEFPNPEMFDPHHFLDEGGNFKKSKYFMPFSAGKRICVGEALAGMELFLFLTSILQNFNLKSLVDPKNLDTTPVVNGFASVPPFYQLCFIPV
Procedure: as §1, with “Cytochrome P450 Inhibition Assay: […] All” for “All”

A549 = experiment: MTT cytotoxicity assay; assay type: cell-based, human; details: two cell lines including A549, up to 7 μM, with or without TGF-β1
Procedure: Cells (8 × 10^3 per well, 96-well) were treated as indicated, incubated with 0.5 mg/mL MTT for 4 h, solubilized in DMSO, and read at 570 nm.
Cells were seeded at 8 × 10³ cells per well in 200 µL of medium in a 96-well plate. The next day, the medium was replaced with medium containing the test compound(s) at the desired concentration(s) and incubated for the specified duration. After the incubation, the medium was discarded and replaced with 0.5 mg/mL Thiazolyl Blue Tetrazolium Bromide in PBS. Following a 4 h incubation at 37 °C, the formazan crystals were dissolved in DMSO, and absorbance was measured at 570 nm using a SUNRISE™ microplate reader. The relative cell viability was calculated based on the optical density values.

[1] = test system: BLM-induced pulmonary fibrosis; experiment: BLM-induced pulmonary fibrosis, Ashcroft scoring of lung sections; assay type: in vivo, ICR mice; details: BLM 30 mg/kg intratracheal; ACF-2 10 mg/kg i.p. every 2 days or NIDB 60 mg/kg/day in drinking water, 2 weeks; BLM-only 6.2
Procedure: Male ICR mice received BLM (30 mg/kg, intratracheal). […] Fixed left lung lobes were paraffin-embedded, sectioned (4 μm), and stained with H&E or MT. A blinded pathologist graded pulmonary fibrosis on the 1-8 Ashcroft scale; representative images illustrate typical lesions. Colon samples were processed by the swiss-roll method, stained with H&E, and scored for inflammation and erosion, which were combined into a composite histological score. All animal studies were approved by the Institutional Animal Care and Use Committee of Jeju National University (Approval ID: 2024-0058) and conducted in compliance with institutional guidelines. Male ICR mice (6 weeks old, average body weight 27 g) were purchased from […] (South Korea) and housed under controlled temperature (22 ± 2 °C) and humidity (0.0 ± 15.0 %) on a 12 hr light-dark cycle with free access to food and water. […] Lung tissue: Left lung lobes were fixed in 4% paraformaldehyde for 24 h, dehydrated, and embedded in paraffin. Sections of 4 μm thickness were prepared, deparaffinized with xylene, and rehydrated in a graded ethanol series. H&E staining was performed using hematoxylin and eosin solutions, respectively. The severity of fibrosis was graded according to the Ashcroft scale (1-8), as evaluated by a pathologist blindly. Representative H&E images were chosen to illustrate the most characteristic pathology. […]

HIF-1α–EGFP in A549 = experiment: pg-HIF-1α–EGFP fluorescence in transfected A549; assay type: cell-based, human; details: A549, co-treatment with TGF-β1
Procedure: pg-HIF-1α–EGFP was introduced via jetOPTIMUS®; GFP fluorescence was quantified 48 h post-transfection.
Transient transfection of A549 cells with pg-HIF-1α–EGFP was performed using jetOPTIMUS® according to the manufacturer’s protocol. Following 48 hr of transfection, the medium was replaced, and cells were treated with TGF-β1 at the specified concentration and duration before further analysis. Cell imaging was performed using an EVOS™ M7000 at 10×, 20×, or 40× magnification. GFP fluorescence intensity was measured using ImageJ. The mean fluorescence within the regions of interest (ROIs) was calculated after background subtraction, and values were normalized to the control condition

MRC-5 = experiment: Western blot of fibrosis markers in MRC-5; assay type: cell-based, human; details: MRC-5, TGF-β1 and ACF-2 co-treatment
Procedure: RIPA lysates (BCA-normalized) were resolved by SDS-PAGE, transferred to nitrocellulose, and probed with the antibodies listed in Appendix S2. Protocols & Materials.
Cells were lysed in RIPA buffer supplemented with a Protease Inhibitor Cocktail. Protein concentrations were determined using the SMART™ BCA Protein Assay Kit. Equal amounts of protein were separated by SDS-PAGE and transferred onto nitrocellulose membranes. Membranes were blocked with 5% skim milk in TBST and incubated overnight at 4 °C with the primary antibodies indicated below. Membranes were then washed and incubated for 1 hr at room temperature with the appropriate secondary antibodies. Protein bands were visualized using the Davinch Western Imaging system according to the manufacturer’s instructions. Band intensities were quantified using ImageJ software after background subtraction. The signal intensity of each target protein was normalized to the corresponding GAPDH band, and values were further normalized to the control group (set to 1 for each independent experiment).

Compound `COc1ccc(-c2c(-c3ccc(O)c(OC)c3)oc3cc(OC)c(OC)cc3c2=O)cc1` [ACF-2] has an IC50 (CYP2C19) of 8.05 µM, an IC50 (CYP2C8) of 6.24 µM and an IC50 (CYP2C9) of 18.1 ± 4.61 µM. The “cytotoxicity (MTT)” value (A549) was “does not induce cellular cytotoxicity; also recorded: did not exhibit cytotoxic effects”, the “Average Ashcroft score” value [1] was 3.3 and the “TGF-β1–induced HIF-1α–EGFP GFP fluorescence intensity” value (HIF-1α–EGFP in A549) was “significantly attenuated the TGF-β1–induced increase in GFP fluorescence intensity”. For the same compound, the “Fibronectin, COL4A6, α-SMA (Western blot)” value (MRC-5) was “same dose-dependent antifibrotic response”.
